Results published in the NIST ThermoML archive (doi:10.1016/j.jct.2012.09.003).

Legend:
[1] = cn = amount concentration of the nth substance listed, in mol/dm3; conditions: 298.15 K, 101 kPa, Liquid; for viscosity: Capillary tube (Ostwald / Ubbelohde) method; for speed of sound: Linear variable-path acoustic interferometer; for mass density: Vibrating tube method
[2] = 298.15 K, 101.33 kPa, Liquid; for viscosity: Capillary tube (Ostwald / Ubbelohde) method; for speed of sound: Linear variable-path acoustic interferometer; for mass density: Vibrating tube method

CCCC[P+](CCCC)(CCCC)CCCC.F[B-](F)(F)F [tetrabutylphosphonium tetrafluoroborate] + C[S+](C)[O-]
[1]
Conditions | mass density [kg/m3] | speed of sound [m/s] | viscosity [mPa·s]
c1 = 0.0046 | 1096.05 | 1492.7 | 1.952
c1 = 0.0184 | 1096.4 | 1501.5 | 1.982
c1 = 0.0323 | 1097.02 | 1513.7 | 2.015
c1 = 0.0463 | 1097.84 | 1527.9 | 2.049
c1 = 0.0604 | 1098.83 | 1544.5 | 2.085
c1 = 0.0746 | 1099.98 | 1564.6 | 2.12

CN(C)C=O [dimethylformamide]
[2]
Conditions | mass density [kg/m3] | speed of sound [m/s] | viscosity [mPa·s]
– | 944.5 | 1451.7 | 0.794

C[S+](C)[O-] [dimethyl sulfoxide]
[2]
Conditions | mass density [kg/m3] | speed of sound [m/s] | viscosity [mPa·s]
– | 1096.02 | 1490.8 | 1.946

CC(=O)N(C)C [N,N-dimethylethanamide]
[2]
Conditions | mass density [kg/m3] | speed of sound [m/s] | viscosity [mPa·s]
– | 936.8 | 1458.5 | 0.923

CCCC[P+](CCCC)(CCCC)CCCC.F[B-](F)(F)F [tetrabutylphosphonium tetrafluoroborate] + CN(C)C=O
[1]
Conditions | mass density [kg/m3] | speed of sound [m/s] | viscosity [mPa·s]
c1 = 0.0053 | 944.98 | 1455.6 | 0.802
c1 = 0.0213 | 946.61 | 1468.7 | 0.82
c1 = 0.0374 | 948.4 | 1483.2 | 0.837
c1 = 0.0536 | 950.34 | 1498.6 | 0.854
c1 = 0.0699 | 952.4 | 1515.4 | 0.871
c1 = 0.0729 | – | – | 0.889
c1 = 0.0863 | 954.5 | 1533.8 | –

CCCC[P+](CCCC)(CCCC)CCCC.F[B-](F)(F)F [tetrabutylphosphonium tetrafluoroborate] + CC(=O)N(C)C
[1]
Conditions | mass density [kg/m3] | speed of sound [m/s] | viscosity [mPa·s]
c1 = 0.0053 | 937.22 | 1461.8 | 0.93
c1 = 0.0215 | 938.69 | 1473.5 | 0.949
c1 = 0.0377 | 940.34 | 1486.9 | 0.968
c1 = 0.0541 | 942.13 | 1501.6 | 0.987
c1 = 0.0705 | 944.01 | 1517.8 | 1.007
c1 = 0.0871 | 945.94 | 1536.3 | 1.028
